Biological target: Potassium voltage-gated channel subfamily A member 5 (Homo sapiens, UniProt P22460)
Assay: Antagonist activity at human Kv1.5 expressed in mouse L929 cells assessed as inhibition of delayed rectifier repolarization current by patch clamp assay

Chain of Potassium voltage-gated channel subfamily A member 5 (P22460 whole entry): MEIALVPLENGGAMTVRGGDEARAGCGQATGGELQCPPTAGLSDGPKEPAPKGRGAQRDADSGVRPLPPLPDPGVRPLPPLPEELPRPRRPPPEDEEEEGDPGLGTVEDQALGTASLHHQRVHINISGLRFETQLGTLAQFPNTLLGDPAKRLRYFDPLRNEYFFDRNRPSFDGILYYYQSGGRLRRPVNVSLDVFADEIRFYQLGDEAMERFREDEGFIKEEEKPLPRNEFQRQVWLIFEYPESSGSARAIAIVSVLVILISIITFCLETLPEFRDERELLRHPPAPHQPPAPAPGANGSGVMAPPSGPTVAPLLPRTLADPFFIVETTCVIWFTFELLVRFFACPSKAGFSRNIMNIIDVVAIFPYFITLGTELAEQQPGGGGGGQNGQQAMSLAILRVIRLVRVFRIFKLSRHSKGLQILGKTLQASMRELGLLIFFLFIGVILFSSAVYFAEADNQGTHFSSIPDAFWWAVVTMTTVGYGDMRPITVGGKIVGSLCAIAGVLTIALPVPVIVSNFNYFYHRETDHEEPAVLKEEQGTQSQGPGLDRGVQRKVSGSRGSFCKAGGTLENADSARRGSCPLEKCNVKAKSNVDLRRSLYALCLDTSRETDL

IC50 [nM]	SMILES
607	CC1=Nc2cc(C(F)(F)F)nn2[C@H](c2ccc(Cl)c(Cl)c2)C1c1ncnn1C1CCC(C(F)(F)F)CC1 (stereo partly drawn)
223	CCOc1cccc(-n2ncnc2C2C(C)=Nc3cc(C(F)(F)F)nn3[C@@H]2c2ccc(Cl)c(Cl)c2)n1 (stereo partly drawn)
223	CC1=Nc2ccnn2[C@H](c2ccc(Cl)c(Cl)c2)C1c1ncnn1C(C)(C)C (stereo partly drawn)

Reference: BindingDB's records for doi:10.1016/j.bmcl.2013.01.064 (Bristol Myers Squibb, 2013)
